This data set can be described thus: gradient 5% acetonitrile 3 min, to 50% in 2 min, to 85% in 15 min, held 3 min, 100 µL/min. Conditions: column: Zorbax Extend-C18 2.1 x 50 mm; eluents: water / acetonitrile, 0.1% formic acid. The method in brief:
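The system's dead and dwell volumes were 40 μL and 900 μL, with a Zorbax Extend-C18 column (2.1 × 50 mm, 1.8 μm) run at 100 μL/min in water and acetonitrile containing 0.1% formic acid each. Pure standards were analyzed in mixtures of ~100 molecules by HPLC–quadrupole time-of-flight mass spectrometry in positive and negative ionization mode. Retention time was assigned from computationally picked, manually inspected adduct peaks.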
Compound `COC(=O)c1ccc2c(=O)n(-c3cccc(C)c3)c(N3CCN(c4ccccn4)CC3)nc2c1` returned an RP-LC retention time of 726 s.
For the compound `COCCc1noc(-c2ccc(=O)n(CC(=O)Nc3ccccc3)c2)n1`, the RP-LC retention time was 695 s.
The result for `CC(NC(=O)Cn1c(=O)n(-c2ccc(F)cc2)c2ncccc21)c1ccccn1` (centres undefined) reads 627 s; that for `O=C(CCCn1c(=O)c2cccn2c2ccc(F)cc21)N1CCCCCC1`, 934 s.
The figure for `O=C(c1cc(-c2ccccc2)n[nH]1)N1CC(c2nc(C3CC3)no2)C1` is 711 s.
The figure for `CCN1C(=O)CCc2cc(NC(=O)Cc3ccccc3Cl)ccc21` is 795 s; for `COc1ccc(NC(=O)N(C)CCc2noc(COc3ccc(F)cc3)n2)c(OC)c1` it is 837 s; for `COc1ccc(C2C(C(=O)OC(C)C)=C(C)NC3=C2C(=O)CCC3)c(OC)c1OC` (centres undefined) it is 778 s.
`CCn1cc(-c2ccc(Cl)cc2)cc1C(=O)NCCCN1CCOCC1`: the RP-LC retention time worked out at 709 s.
The figure for `COC(=O)c1cc2c(=O)n(-c3nc(-c4ccccc4)cs3)ccc2nc1C` is 1250 s; for `COc1ccc(N2CC(c3nc(-c4ccc(C)cc4)no3)CC2=O)cc1OC` (centres undefined) it is 866 s; for `Cc1ccc(O)c(CNC2CCN(c3ccc(C(=O)NC4CC4)cn3)C2)c1` (centres undefined) it is 560 s.
The result for `CN1CCN(S(=O)(=O)c2ccc(F)c(Cl)c2)CC1` reads 530 s; that for `COc1ccc(Cn2c(=O)c3sccc3n(Cc3nc(-c4ccccc4)no3)c2=O)cc1`, 1000 s.
The figure for `CC(C)(C)C(=O)N1CCOC(c2ccccc2)C1` (centres undefined) is 831 s; for `CCOC(=O)Cc1csc(NC(=O)CSc2nnc3ccccn23)n1` it is 617 s; for `CCc1nc(-c2csc(S(=O)(=O)N3CCC(C(=O)Nc4ccc(F)cc4C)CC3)c2)no1` it is 963 s.
In turn, `CCc1nccn1Cc1nc(-c2ccc(Br)cc2)no1` came in with an RP-LC retention time of 677 s.
The figure for `Cc1noc(-c2nn(C)c3c2CN(C(=O)Nc2ccc(C(F)(F)F)cc2)CC3)n1` is 847 s; for `O=C1NCCCCCN(C(=O)c2ccoc2)[C@@H]2C[C@@H](C(=O)N3CCc4ccccc4C3)C[C@H]12` it is 753 s; for `Cc1cccc(CNC(=O)CN2CCN(Cc3ccc(F)cc3)C(=O)C2=O)c1` it is 740 s.
Regarding `Cc1nc(-c2cnccn2)n(CC(=O)Nc2ccc(F)cc2)c(=O)c1C`, the RP-LC retention time is 709 s.
The result for `COc1cc(NC(=O)NCCc2nc3cccnc3n2C2CCCC2)cc(OC)c1` reads 704 s.
The result for `Cc1ccc(CNC(=O)C2(C)CCCN(C(=O)Nc3ccc(C)c(F)c3)C2)cc1` (centres undefined) reads 857 s.
The result for `Cc1ccc(NC(=O)C(=O)NCC2CCN(S(=O)(=O)C3CC3)CC2)cc1F` reads 828 s; that for `O=C(CC1CCN(C(=O)c2ccc3oc(C4CC4)nc3c2)CC1)NCc1ccc2c(c1)OCO2`, 733 s.
Take `Cc1nnc(-c2cc(C)n(CC(=O)Nc3ccc(C)c(C)c3)c2C)o1`: the RP-LC retention time worked out at 809 s.
The result for `CN(CCc1noc(-c2ccc(C(=O)N3CCCCC3)cc2)n1)C(=O)c1ccc(Br)o1` reads 782 s; that for `O=C(CN1CCN(C(=O)Nc2ccc(Br)cc2)CC1=O)NCc1ccccn1`, 615 s; that for `Cc1ccc(CNC(=O)c2ccc(-c3cncnc3)nc2)o1`, 678 s.
The result for `COCCN1C(=O)c2cc(-c3ccc(OC)c(OC)c3)nn2CC1(C)C(=O)NC1CCCCC1` (centres undefined) reads 824 s; that for `CCSc1nnc(-c2nn(C)c3c2CN(S(=O)(=O)c2ccc(OC)c(Cl)c2)CC3)n1CC`, 968 s.
The figure for `CCN1CCC2(CC1)CC(c1nnc(C)o1)N(CCc1ccccc1)C2` (centres undefined) is 550 s; for `Cc1ccc(Nc2nc(C(=O)NC3CCCCC3)nc3ccccc23)cc1` it is 906 s; for `CCOC(=O)c1[nH]c(C)c(CCC(=O)N2CCC(C(=O)NCCc3ccco3)CC2)c1C` it is 743 s.
For `Cc1ccn2cc(C(=O)NC3CCN(Cc4ccccc4)CC3)nc2c1`, the RP-LC retention time is 804 s.
The result for `CN(C)C(=O)c1csc(S(=O)(=O)N2CCC(C(=O)NCc3ccc(F)cc3)CC2)c1` reads 725 s; that for `Cc1cnc(C2CC2)n1CCNS(=O)(=O)c1cccc(F)c1`, 605 s; that for `CC(C)CCNC(=O)N1CCN(Cc2nc3cc(C(=O)N(C)C)ccc3o2)CC1`, 614 s.
As to `COc1cccc(CCC(=O)N(C)C[C@@]23CCC[C@H]2N(C)C(=O)CC3)c1`, the RP-LC retention time worked out at 571 s.
In the case of `COc1cc(CNC(=O)CCc2c(-c3ccc(F)cc3)nc3ccccn23)cc(OC)c1OC`, the RP-LC retention time came to 632 s.
The figure for `CSc1cccc(NC(=O)c2cn(C)nc2S(=O)(=O)N2CCSCC2)c1` is 973 s; for `CCn1c(=O)c(C(=O)N2CCCC2)nc2ccccc21` it is 665 s.
The result for `COc1ccc(-c2noc(CN3N=NC4C(=O)N(c5ccc(F)cc5)C(=O)C43)n2)c(OC)c1` (centres undefined) reads 1170 s; that for `Cc1ccc(CCNC(=O)C2CCCN(c3nnc(C)c4c(C)n(-c5ccccc5)nc34)C2)cc1` (centres undefined), 762 s; that for `Cc1ccc(-c2csc(NC(=O)CC(C)C)n2)c(C)c1`, 1090 s.
The figure for `Cc1ccc(NC(=O)C2CCN(C(=O)C3Sc4ccccc4NC3=O)CC2)cc1Cl` (centres undefined) is 878 s; for `CC1(C)NC(=O)N(CCC(=O)N2CCC(c3nc(C4CCOCC4)no3)C2)C1=O` (centres undefined) it is 604 s; for `CN(C)CCCNc1ncnc2c1cnn2-c1cccc(Cl)c1` it is 653 s.
`Cc1ccc(-c2nc3cnccn3c2NCCC(=O)NCC(C)C)cc1`: the RP-LC retention time was found to be 690 s.
`O=C(Nc1cccc(N2CCCCC2=O)c1)c1ccc(F)c(F)c1` showed an RP-LC retention time of 705 s.
The result for `CCc1cccc(NC(=O)Cn2c(=O)n(-c3cccc(C)c3)c(=O)c3c2cc(C)n3C)c1` reads 966 s.
The figure for `O=C(Cn1nc2c(N3CCCCCC3)nccn2c1=O)Nc1ccccc1F` is 682 s; for `COc1cccc(-n2cc(C(=O)O)nn2)c1` it is 682 s; for `COc1ccc(CN(CCN(C)C)c2ncccn2)cc1` it is 707 s.
The result for `O=C(NCCc1csc(C2CCN(C(=O)C3CCC3)CC2)n1)C1CCC1` reads 703 s; that for `Cc1ccnc(Nc2nc(-c3cc(C)c(C)cc3C)cs2)c1`, 953 s.
The compound `O=C(Nc1cc(-c2ccccc2)nn1CCO)c1ccc2nsnc2c1` yielded an RP-LC retention time of 764 s.
The figure for `O=C(Cn1cnc2nc(N3CCCC(C(=O)NC4CC4)C3)sc2c1=O)Nc1ccccc1F` (centres undefined) is 668 s.

The record behind these values is the METLIN SMRT retention time set (Domingo-Almenara et al. 2019).
